ChEMBL document CHEMBL1147293, “Immunosuppressive compounds from a deep water marine sponge, Agelas flabelliformis” (J Nat Prod, 1989)

Experiments:
Splenocyte [1] = experiment: Immunosuppressive activity against mouse splenocytes assessed as [3H]thymidine incorporation at 2.0 ug/ml after 88 hrs by liquid scintillation counting; format: functional
Splenocyte [2] = experiment: Immunosuppressive activity against concanavalin A-activated mouse splenocytes assessed as [3H]thymidine incorporation at 125 ug/ml after 72 hrs by liquid scintillation counting; format: functional
[3] = Cytotoxicity against mouse splenocytes assessed as cell viability at 0.3 ug/ml after 88 hrs by MTT assay; format: cell-based, Splenocyte; conditions: read-out: Activity
Splenocyte [4] = experiment: Immunosuppressive activity against mouse splenocytes assessed as [3H]thymidine incorporation at 7.8 ug/ml after 88 hrs by liquid scintillation counting; format: functional
Splenocyte [5] = experiment: Immunosuppressive activity against concanavalin A-activated mouse splenocytes assessed as [3H]thymidine incorporation at 250 ug/ml after 72 hrs by liquid scintillation counting; format: functional
Splenocyte [6] = experiment: Immunosuppressive activity against concanavalin A-activated mouse splenocytes assessed as [3H]thymidine incorporation at 15.6 ug/ml after 72 hrs by liquid scintillation counting; format: functional
Splenocyte [7] = experiment: Immunosuppressive activity against concanavalin A-activated mouse splenocytes assessed as [3H]thymidine incorporation at 2.0 ug/ml after 72 hrs by liquid scintillation counting; format: functional
Splenocyte [8] = experiment: Immunosuppressive activity against mouse splenocytes assessed as [3H]thymidine incorporation at 1.0 ug/ml after 88 hrs by liquid scintillation counting; format: functional
[9] = Cytotoxicity against mouse splenocytes assessed as cell viability at 125 ug/ml after 88 hrs by MTT assay; format: cell-based, Splenocyte; conditions: read-out: Activity
[10] = Cytotoxicity against mouse splenocytes assessed as cell viability at 1.0 ug/ml after 88 hrs by MTT assay; format: cell-based, Splenocyte; conditions: read-out: Activity
Splenocyte [11] = experiment: Immunosuppressive activity against mouse splenocytes assessed as [3H]thymidine incorporation at 250 ug/ml after 88 hrs by liquid scintillation counting; format: functional
Splenocyte [12] = experiment: Immunosuppressive activity against concanavalin A-activated mouse splenocytes assessed as [3H]thymidine incorporation at 7.8 ug/ml after 72 hrs by liquid scintillation counting; format: functional
Splenocyte [13] = experiment: Immunosuppressive activity against concanavalin A-activated mouse splenocytes assessed as [3H]thymidine incorporation at 31.3 ug/ml after 72 hrs by liquid scintillation counting; format: functional
[14] = Cytotoxicity against mouse splenocytes assessed as cell viability at 500 ug/ml after 88 hrs by MTT assay; format: cell-based, Splenocyte; conditions: read-out: Activity
[15] = Cytotoxicity against mouse splenocytes assessed as cell viability at 0.5 ug/ml after 88 hrs by MTT assay; format: cell-based, Splenocyte; conditions: read-out: Activity
[16] = Cytotoxicity against mouse splenocytes assessed as cell viability at 2.0 ug/ml after 88 hrs by MTT assay; format: cell-based, Splenocyte; conditions: read-out: Activity
Splenocyte [17] = experiment: Immunosuppressive activity against mouse splenocytes assessed as [3H]thymidine incorporation at 62.5 ug/ml after 88 hrs by liquid scintillation counting; format: functional
[18] = Cytotoxicity against mouse splenocytes assessed as cell viability at 3.9 ug/ml after 88 hrs by MTT assay; format: cell-based, Splenocyte; conditions: read-out: Activity
[19] = Cytotoxicity against mouse splenocytes assessed as cell viability at 7.8 ug/ml after 88 hrs by MTT assay; format: cell-based, Splenocyte; conditions: read-out: Activity
Splenocyte [20] = experiment: Immunosuppressive activity against concanavalin A-activated mouse splenocytes assessed as [3H]thymidine incorporation at 0.5 ug/ml after 72 hrs by liquid scintillation counting; format: functional
Splenocyte [21] = experiment: Immunosuppressive activity against mouse splenocytes assessed as [3H]thymidine incorporation at 500 ug/ml after 88 hrs by liquid scintillation counting; format: functional
[22] = Cytotoxicity against mouse splenocytes assessed as cell viability at 250 ug/ml after 88 hrs by MTT assay; format: cell-based, Splenocyte; conditions: read-out: Activity
[23] = Cytotoxicity against mouse splenocytes assessed as cell viability at 15.6 ug/ml after 88 hrs by MTT assay; format: cell-based, Splenocyte; conditions: read-out: Activity
Splenocyte [24] = experiment: Immunosuppressive activity against mouse splenocytes assessed as [3H]thymidine incorporation at 125 ug/ml after 88 hrs by liquid scintillation counting; format: functional
Splenocyte [25] = experiment: Immunosuppressive activity against mouse splenocytes assessed as [3H]thymidine incorporation at 0.5 ug/ml after 88 hrs by liquid scintillation counting; format: functional
Splenocyte [26] = experiment: Immunosuppressive activity against mouse splenocytes assessed as [3H]thymidine incorporation at 3.9 ug/ml after 88 hrs by liquid scintillation counting; format: functional
Splenocyte [27] = experiment: Immunosuppressive activity against concanavalin A-activated mouse splenocytes assessed as [3H]thymidine incorporation at 500 ug/ml after 72 hrs by liquid scintillation counting; format: functional
Splenocyte [28] = experiment: Immunosuppressive activity against mouse splenocytes assessed as [3H]thymidine incorporation at 15.6 ug/ml after 88 hrs by liquid scintillation counting; format: functional
[29] = Cytotoxicity against mouse splenocytes assessed as cell viability at 62.5 ug/ml after 88 hrs by MTT assay; format: cell-based, Splenocyte; conditions: read-out: Activity
Splenocyte [30] = experiment: Immunosuppressive activity against concanavalin A-activated mouse splenocytes assessed as [3H]thymidine incorporation at 0.3 ug/ml after 72 hrs by liquid scintillation counting; format: functional
[31] = Cytotoxicity against mouse splenocytes assessed as cell viability at 31.3 ug/ml after 88 hrs by MTT assay; format: cell-based, Splenocyte; conditions: read-out: Activity
Splenocyte [32] = experiment: Immunosuppressive activity against concanavalin A-activated mouse splenocytes assessed as [3H]thymidine incorporation at 1.0 ug/ml after 72 hrs by liquid scintillation counting; format: functional
Splenocyte [33] = experiment: Immunosuppressive activity against mouse splenocytes assessed as [3H]thymidine incorporation at 31.3 ug/ml after 88 hrs by liquid scintillation counting; format: functional
Splenocyte [34] = experiment: Immunosuppressive activity against concanavalin A-activated mouse splenocytes assessed as [3H]thymidine incorporation at 3.9 ug/ml after 72 hrs by liquid scintillation counting; format: functional
Splenocyte [35] = experiment: Immunosuppressive activity against concanavalin A-activated mouse splenocytes assessed as [3H]thymidine incorporation at 62.5 ug/ml after 72 hrs by liquid scintillation counting; format: functional
Splenocyte [36] = experiment: Immunosuppressive activity against mouse splenocytes assessed as [3H]thymidine incorporation at 0.25 ug/ml after 88 hrs by liquid scintillation counting; format: functional
[37] = Cytotoxicity against mouse splenocytes assessed as cell viability at 0.25 ug/ml after 88 hrs by MTT assay; format: cell-based, Splenocyte; conditions: read-out: Activity

Row | SMILES | Activity (Splenocyte [1]) [%] | Activity (Splenocyte [4]) [%] | Activity (Splenocyte [8]) [%] | viability at 88 h, 125 ug/ml [9] [%] | viability at 88 h, 1 ug/ml [10] [%] | Activity (Splenocyte [11]) [%] | viability at 88 h, 500 ug/ml [14] [%] | viability at 88 h, 0.5 ug/ml [15] [%] | viability at 88 h, 2 ug/ml [16] [%] | Activity (Splenocyte [17]) [%] | viability at 88 h, 3.9 ug/ml [18] [%] | viability at 88 h, 7.8 ug/ml [19] [%] | Activity (Splenocyte [21]) [%] | viability at 88 h, 250 ug/ml [22] [%] | viability at 88 h, 15.6 ug/ml [23] [%] | Activity (Splenocyte [24]) [%] | Activity (Splenocyte [25]) [%] | Activity (Splenocyte [26]) [%] | Activity (Splenocyte [28]) [%] | viability at 88 h, 62.5 ug/ml [29] [%] | further results
1 | O=C(O)c1cc(Br)c(Br)[nH]1 | 31 | 40 | 13 | 12 | 95 | 100 | 10 | 113 | 99 | 100 | 80 | 99 | 100 | 0 | 66 | 100 | 0 | 59 | 100 | 27 | Activity (Splenocyte [2]): 83%; viability at 88 h, 0.3 ug/ml [3]: 100%; Activity (Splenocyte [5]): 99%; Activity (Splenocyte [6]): 84%; Activity (Splenocyte [7]): 29%; Activity (Splenocyte [12]): 64%; Activity (Splenocyte [13]): 83%; Activity (Splenocyte [20]): 39%; Activity (Splenocyte [27]): 83%; Activity (Splenocyte [30]): 50%; viability at 88 h, 31.3 ug/ml [31]: 27%; Activity (Splenocyte [32]): 43%; Activity (Splenocyte [33]): 100%; Activity (Splenocyte [34]): 70%; Activity (Splenocyte [35]): 83%
2 | CC(C)CCC[C@@H](C)[C@H]1CC[C@H]2C3=C(CC[C@]12C)[C@@]1(C)CC[C@H](O)[C@@H](C)[C@@H]1CC3 | 100 | 100 | 81 | 28 | 97 | 100 | 6 | 118 | 77 | 100 | 99 | 80 | 100 | 10 | 92 | 100 | 46 | 100 | 100 | 72 | Activity (Splenocyte [36]): 0%; viability at 88 h, 31.3 ug/ml [31]: 85%; viability at 88 h, 0.25 ug/ml [37]: 104%; Activity (Splenocyte [33]): 100%
